Assay type in all cases: functional
The test system of assay [1] is Bacillus subtilis. The assay is described as follows: Antimicrobial activity against Bacillus subtilis ATCC 6633 assessed as inhibition of microbial growth incubated for 24 hrs by broth dilution method. The settings on record: ATCC 6633, 24 h.
Assay [2] concerns Staphylococcus aureus. Briefly: Antimicrobial activity against Staphylococcus aureus ATCC 25923 assessed as inhibition of microbial growth incubated for 24 hrs by broth dilution method. The conditions noted are these: ATCC 25923, 24 h. For orientation: In broth dilution the organism is exposed to a series of concentrations in liquid medium.
In assay [3] the test system is Escherichia coli. The assay is described as follows: Antimicrobial activity against Escherichia coli ATCC 10536 assessed as inhibition of microbial growth incubated for 24 hrs by broth dilution method. The conditions noted are these: ATCC 10536, 24 h.
In assay [4] the test system is Pseudomonas aeruginosa. The assay is described as follows: Antimicrobial activity against Pseudomonas aeruginosa ATCC 10145 assessed as inhibition of microbial growth incubated for 24 hrs by broth dilution method. The conditions noted are these: ATCC 10145, 24 h.
In the next assay the test system is Klebsiella pneumoniae. Briefly: Antimicrobial activity against Klebsiella pneumoniae ATCC 10031 assessed as inhibition of microbial growth incubated for 24 hrs by broth dilution method. The settings on record: ATCC 10031, 24 h.
The test system of another assay is Candida albicans. The assay is described as follows: Antimicrobial activity against Candida albicans ATCC 10231 assessed as inhibition of microbial growth incubated for 72 hrs by broth dilution method. The conditions noted are these: ATCC 10231, 72 h.
In the next assay the test system is Candida tropicalis. The assay is described as follows: Antimicrobial activity against Candida tropicalis ATCC 750 assessed as inhibition of microbial growth incubated for 72 hrs by broth dilution method. The conditions noted are these: ATCC 750, 72 h.
The subject of assay [5] is Bacillus subtilis. The assay is described as follows: Bactericidal activity against Bacillus subtilis ATCC 6633 assessed as microbial killing during 18 hrs post sub-culture onto drug-free solid media by broth dilution method. The settings on record: ATCC 6633, 18 h, read-out: MBC99.9.
The test system of assay [6] is Staphylococcus aureus. The assay is described as follows: Bactericidal activity against Staphylococcus aureus ATCC 25923 assessed as microbial killing during 18 hrs post sub-culture onto drug-free solid media by broth dilution method. The conditions noted are these: ATCC 25923, 18 h, read-out: MBC99.9.
In assay [7] the test system is Escherichia coli. Briefly: Bactericidal activity against Escherichia coli ATCC 10536 assessed as microbial killing during 18 hrs post sub-culture onto drug-free solid media by broth dilution method. The settings on record: ATCC 10536, 18 h, read-out: MBC99.9.
In assay [8] the test system is Pseudomonas aeruginosa. The assay is described as follows: Bactericidal activity against Pseudomonas aeruginosa ATCC 10145 assessed as microbial killing during 18 hrs post sub-culture onto drug-free solid media by broth dilution method. The conditions noted are these: ATCC 10145, 18 h, read-out: MBC99.9.

Each structure is given as a SMILES string. Converted amounts (≈) assume the structure as drawn. Some results are limits rather than exact numbers.

`O=c1c2c(oc3ccc(Cl)cc13)-c1ccccc1OCCCCO2`: the MIC is 0.073 µM in the assay on Bacillus subtilis [1]; 0.204 µM with Staphylococcus aureus [2]; 0.029 µM in the assay with Escherichia coli [3]; 0.146 µM in the assay with Pseudomonas aeruginosa [4]; 0.146 µM with Klebsiella pneumoniae; above 0.584 µM in the assay with Candida albicans. The MIC with Candida tropicalis was above 0.584 µM. The MBC was found to be 0.024 µM (≈ 0.00823 µg/mL) in the assay on Bacillus subtilis [5], 0.154 µM (≈ 0.0528 µg/mL) with Staphylococcus aureus [6], 0.028 µM (≈ 0.0096 µg/mL) with Escherichia coli [7] and 0.058 µM (≈ 0.0199 µg/mL) in the assay with Pseudomonas aeruginosa [8].

A word on the MIC: it is the least concentration at which growth counts as inhibited.

(Values after ChEMBL document CHEMBL3392983, “Synthesis, antimicrobial activity and molecular docking of novel tetracyclic scaffolds incorporating a flavonoid framework with medium sized oxygen heterocycles” (2015).)
